Measurements taken from the supplement of paper PMC8882468.

System: HCI-025 (organoid from a breast cancer xenograft)
Assay: CTG-3D luminescence at 96 h relative to day-0 seeding control (ratio to day 0); higher = more growth / less cytotoxicity; PDxO 3D drug screen (set 2), 96 h, CTG-3D normalised to day-0 seeding control.
Conditions: 12.5 pM; days in culture: 175

Compound	CTG-3D luminescence at 96 h
CC(C)n1nc(-c2ccc3oc(N)nc3c2)c2c(N)ncnc21 [sapanisertib]	1.69
C[C@@H](Nc1cc(F)cc(F)c1)c1cc(C(=O)N(C)C)cc2c(=O)cc(N3CCOCC3)oc12 [AZD-8186]	1.63
CC(=O)c1c(C)c2cnc(Nc3ccc(N4CCNCC4)cn3)nc2n(C2CCCC2)c1=O [palbociclib]	1.84
Cc1c(CN2CCN(C(=O)[C@H](C)O)CC2)sc2c(N3CCOCC3)nc(-c3cnc(N)nc3)nc12 [apitolisib]	1.49
CS(=O)(=O)CCNCc1ccc(-c2ccc3ncnc(Nc4ccc(OCc5cccc(F)c5)c(Cl)c4)c3c2)o1 [lapatinib]	1.92
CCOc1ccn(-c2ccc(F)cc2)c(=O)c1C(=O)Nc1ccc(Oc2ccnc(N)c2Cl)c(F)c1 [ASLAN002]	1.55
Nc1cc(C(F)(F)F)c(-c2cc(N3CCOCC3)nc(N3CCOCC3)n2)cn1 [buparlisib]	1.38

Same assay, conditions: 12.5 pM; days in culture: 189

Compound	CTG-3D luminescence at 96 h
CC(C)n1nc(-c2ccc3oc(N)nc3c2)c2c(N)ncnc21 [sapanisertib]	2.16
C[C@@H](Nc1cc(F)cc(F)c1)c1cc(C(=O)N(C)C)cc2c(=O)cc(N3CCOCC3)oc12 [AZD-8186]	2.22
CC(=O)c1c(C)c2cnc(Nc3ccc(N4CCNCC4)cn3)nc2n(C2CCCC2)c1=O [palbociclib]	2.77
Cc1c(CN2CCN(C(=O)[C@H](C)O)CC2)sc2c(N3CCOCC3)nc(-c3cnc(N)nc3)nc12 [apitolisib]	1.77
CS(=O)(=O)CCNCc1ccc(-c2ccc3ncnc(Nc4ccc(OCc5cccc(F)c5)c(Cl)c4)c3c2)o1 [lapatinib]	1.99
CCOc1ccn(-c2ccc(F)cc2)c(=O)c1C(=O)Nc1ccc(Oc2ccnc(N)c2Cl)c(F)c1 [ASLAN002]	2.49
Nc1cc(C(F)(F)F)c(-c2cc(N3CCOCC3)nc(N3CCOCC3)n2)cn1 [buparlisib]	2.47

Same assay, conditions: 12.5 pM; days in culture: 212

Compound	CTG-3D luminescence at 96 h
CC(C)n1nc(-c2ccc3oc(N)nc3c2)c2c(N)ncnc21 [sapanisertib]	1.26
C[C@@H](Nc1cc(F)cc(F)c1)c1cc(C(=O)N(C)C)cc2c(=O)cc(N3CCOCC3)oc12 [AZD-8186]	1.07
CC(=O)c1c(C)c2cnc(Nc3ccc(N4CCNCC4)cn3)nc2n(C2CCCC2)c1=O [palbociclib]	2.24
Cc1c(CN2CCN(C(=O)[C@H](C)O)CC2)sc2c(N3CCOCC3)nc(-c3cnc(N)nc3)nc12 [apitolisib]	2.2
CS(=O)(=O)CCNCc1ccc(-c2ccc3ncnc(Nc4ccc(OCc5cccc(F)c5)c(Cl)c4)c3c2)o1 [lapatinib]	1.59
CCOc1ccn(-c2ccc(F)cc2)c(=O)c1C(=O)Nc1ccc(Oc2ccnc(N)c2Cl)c(F)c1 [ASLAN002]	1.41
Nc1cc(C(F)(F)F)c(-c2cc(N3CCOCC3)nc(N3CCOCC3)n2)cn1 [buparlisib]	3.39

Same assay, conditions: 12.5 pM; days in culture: 224

Compound	CTG-3D luminescence at 96 h
CC(C)n1nc(-c2ccc3oc(N)nc3c2)c2c(N)ncnc21 [sapanisertib]	2.13
C[C@@H](Nc1cc(F)cc(F)c1)c1cc(C(=O)N(C)C)cc2c(=O)cc(N3CCOCC3)oc12 [AZD-8186]	1.99
CC(=O)c1c(C)c2cnc(Nc3ccc(N4CCNCC4)cn3)nc2n(C2CCCC2)c1=O [palbociclib]	1.84
Cc1c(CN2CCN(C(=O)[C@H](C)O)CC2)sc2c(N3CCOCC3)nc(-c3cnc(N)nc3)nc12 [apitolisib]	2.45
CS(=O)(=O)CCNCc1ccc(-c2ccc3ncnc(Nc4ccc(OCc5cccc(F)c5)c(Cl)c4)c3c2)o1 [lapatinib]	2.14
CCOc1ccn(-c2ccc(F)cc2)c(=O)c1C(=O)Nc1ccc(Oc2ccnc(N)c2Cl)c(F)c1 [ASLAN002]	2.08
Nc1cc(C(F)(F)F)c(-c2cc(N3CCOCC3)nc(N3CCOCC3)n2)cn1 [buparlisib]	2.03

Same assay, conditions: 0.00025 µM; days in culture: 175

Compound	CTG-3D luminescence at 96 h
CC(C)n1nc(-c2ccc3oc(N)nc3c2)c2c(N)ncnc21 [sapanisertib]	1.73
C[C@@H](Nc1cc(F)cc(F)c1)c1cc(C(=O)N(C)C)cc2c(=O)cc(N3CCOCC3)oc12 [AZD-8186]	2.47
CC(=O)c1c(C)c2cnc(Nc3ccc(N4CCNCC4)cn3)nc2n(C2CCCC2)c1=O [palbociclib]	2.51
Cc1c(CN2CCN(C(=O)[C@H](C)O)CC2)sc2c(N3CCOCC3)nc(-c3cnc(N)nc3)nc12 [apitolisib]	1.72
CS(=O)(=O)CCNCc1ccc(-c2ccc3ncnc(Nc4ccc(OCc5cccc(F)c5)c(Cl)c4)c3c2)o1 [lapatinib]	2.05
CCOc1ccn(-c2ccc(F)cc2)c(=O)c1C(=O)Nc1ccc(Oc2ccnc(N)c2Cl)c(F)c1 [ASLAN002]	1.97
Nc1cc(C(F)(F)F)c(-c2cc(N3CCOCC3)nc(N3CCOCC3)n2)cn1 [buparlisib]	1.85

Same assay, conditions: 0.00025 µM; days in culture: 189

Compound	CTG-3D luminescence at 96 h
CC(C)n1nc(-c2ccc3oc(N)nc3c2)c2c(N)ncnc21 [sapanisertib]	2.67
C[C@@H](Nc1cc(F)cc(F)c1)c1cc(C(=O)N(C)C)cc2c(=O)cc(N3CCOCC3)oc12 [AZD-8186]	1.46
CC(=O)c1c(C)c2cnc(Nc3ccc(N4CCNCC4)cn3)nc2n(C2CCCC2)c1=O [palbociclib]	1.41
Cc1c(CN2CCN(C(=O)[C@H](C)O)CC2)sc2c(N3CCOCC3)nc(-c3cnc(N)nc3)nc12 [apitolisib]	1.49
CS(=O)(=O)CCNCc1ccc(-c2ccc3ncnc(Nc4ccc(OCc5cccc(F)c5)c(Cl)c4)c3c2)o1 [lapatinib]	2.19
CCOc1ccn(-c2ccc(F)cc2)c(=O)c1C(=O)Nc1ccc(Oc2ccnc(N)c2Cl)c(F)c1 [ASLAN002]	2.61
Nc1cc(C(F)(F)F)c(-c2cc(N3CCOCC3)nc(N3CCOCC3)n2)cn1 [buparlisib]	2.03

Same assay, conditions: 0.00025 µM; days in culture: 212

Compound	CTG-3D luminescence at 96 h
CC(C)n1nc(-c2ccc3oc(N)nc3c2)c2c(N)ncnc21 [sapanisertib]	1.57
C[C@@H](Nc1cc(F)cc(F)c1)c1cc(C(=O)N(C)C)cc2c(=O)cc(N3CCOCC3)oc12 [AZD-8186]	3.57
CC(=O)c1c(C)c2cnc(Nc3ccc(N4CCNCC4)cn3)nc2n(C2CCCC2)c1=O [palbociclib]	1.43
Cc1c(CN2CCN(C(=O)[C@H](C)O)CC2)sc2c(N3CCOCC3)nc(-c3cnc(N)nc3)nc12 [apitolisib]	3.51
CS(=O)(=O)CCNCc1ccc(-c2ccc3ncnc(Nc4ccc(OCc5cccc(F)c5)c(Cl)c4)c3c2)o1 [lapatinib]	3.22
CCOc1ccn(-c2ccc(F)cc2)c(=O)c1C(=O)Nc1ccc(Oc2ccnc(N)c2Cl)c(F)c1 [ASLAN002]	1.8
Nc1cc(C(F)(F)F)c(-c2cc(N3CCOCC3)nc(N3CCOCC3)n2)cn1 [buparlisib]	3.81

Same assay, conditions: 0.00025 µM; days in culture: 224

Compound	CTG-3D luminescence at 96 h
CC(C)n1nc(-c2ccc3oc(N)nc3c2)c2c(N)ncnc21 [sapanisertib]	1.98
C[C@@H](Nc1cc(F)cc(F)c1)c1cc(C(=O)N(C)C)cc2c(=O)cc(N3CCOCC3)oc12 [AZD-8186]	2.38
CC(=O)c1c(C)c2cnc(Nc3ccc(N4CCNCC4)cn3)nc2n(C2CCCC2)c1=O [palbociclib]	1.83
Cc1c(CN2CCN(C(=O)[C@H](C)O)CC2)sc2c(N3CCOCC3)nc(-c3cnc(N)nc3)nc12 [apitolisib]	2.02
CS(=O)(=O)CCNCc1ccc(-c2ccc3ncnc(Nc4ccc(OCc5cccc(F)c5)c(Cl)c4)c3c2)o1 [lapatinib]	1.93
CCOc1ccn(-c2ccc(F)cc2)c(=O)c1C(=O)Nc1ccc(Oc2ccnc(N)c2Cl)c(F)c1 [ASLAN002]	0.982
